Data: the supplement of paper PMC10307832

Experiments:
Assay in all cases: relative viability (nuclei count vs DMSO), 5 days (fraction); higher = more cells survive
[1] = compound: O=C(CCCCCCNC(=O)c1cnc(N(c2ccccc2)c2ccccc2)nc1)NO [Ricolinostat] + CS(=O)(=O)N1CCN(Cc2cc3nc(-c4cccc5[nH]ncc45)nc(N4CCOCC4)c3s2)CC1 [Pictilisib] (partner 1 µM)
In short: (§1)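 Values are medians from duplicate plates. Each reflects relative viability, defined as the nuclei count of treated wells over that of vehicle wells. Lung cancer cell lines in 1536-well plates were pin-tool dosed one day after seeding with one drug alone or with a fixed anchor-drug dose plus five library-drug doses (not always all listed) in √10 steps, then fixed, stained and imaged at 4× after 5 days.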

Ricolinostat + Foretinib = compound: O=C(CCCCCCNC(=O)c1cnc(N(c2ccccc2)c2ccccc2)nc1)NO [Ricolinostat] + COc1cc2c(Oc3ccc(NC(=O)C4(C(=O)Nc5ccc(F)cc5)CC4)cc3F)ccnc2cc1OCCCN1CCOCC1 [Foretinib] (partner 0.25 µM)
In short: as §1

[2] = compound: O=C(CCCCCCNC(=O)c1cnc(N(c2ccccc2)c2ccccc2)nc1)NO [Ricolinostat] + CC(=O)c1c(C)c2cnc(Nc3ccc(N4CCNCC4)cn3)nc2n(C2CCCC2)c1=O [Palbociclib] (partner 0.5 µM)
In short: as §1

TGX 221 + OSI-027 = compound: CC1=CN2C(=O)C=C(N=C2C(=C1)C(C)NC3=CC=CC=C3)N4CCOCC4 [TGX 221] + COc1cccc2cc(-c3nc([C@H]4CC[C@H](C(=O)O)CC4)n4ncnc(N)c34)[nH]c12 [OSI-027] (partner 0.5 µM)
In short: as §1

Cell Line	relative viability ([1]; first compound 0.253 µM)	relative viability ([1]; first compound 0.8 µM)	relative viability ([1]; first compound 2.53 µM)	relative viability (Ricolinostat + Foretinib; first compound 0.253 µM)	relative viability (Ricolinostat + Foretinib; first compound 0.8 µM)	relative viability (Ricolinostat + Foretinib; first compound 2.53 µM)	relative viability ([2]; first compound 0.253 µM)	relative viability ([2]; first compound 0.8 µM)	relative viability ([2]; first compound 2.53 µM)	relative viability (TGX 221 + OSI-027; first compound 0.08 µM)	relative viability (TGX 221 + OSI-027; first compound 0.253 µM)	relative viability (TGX 221 + OSI-027; first compound 0.8 µM)	relative viability (TGX 221 + OSI-027; first compound 2.53 µM)	relative viability (TGX 221 + OSI-027; first compound 8 µM)	relative viability ([1]; first compound 0.08 µM)	relative viability (Ricolinostat + Foretinib; first compound 0.08 µM)	relative viability ([2]; first compound 0.08 µM)
HCC-78	0.196	0.163	0.184	0.526	0.553	0.427	0.438	0.484	0.479	0.295	0.385	0.33	0.306	0.326	–	–	–
HCC-366	0.17	0.151	0.198	0.837	0.975	0.817	0.335	0.344	0.257	0.865	0.832	0.922	0.567	0.755	0.133	0.915	0.383
HCC-827	0.965	0.948	1.09	1.06	1.04	0.964	0.548	0.487	0.573	0.735	0.761	0.799	0.727	0.78	0.956	0.998	0.335
HOP-62	0.749	0.624	0.33	1.03	1	1.09	0.406	0.355	0.416	0.787	0.812	0.788	0.807	0.835	0.624	1	0.457
IA-LM	0.35	0.308	0.316	1.01	1.09	0.932	–	–	–	–	–	–	–	–	0.234	0.959	–
LC-2-ad	0.546	0.433	0.236	0.874	0.886	0.761	0.418	0.465	0.488	0.745	0.759	0.931	0.846	0.804	0.4	0.747	0.52
LCLC-97TM1	0.181	0.168	0.141	0.89	1	0.933	0.202	0.232	0.212	0.357	0.466	0.494	0.485	0.546	0.205	0.953	0.198
LCLC-103H	0.47	0.583	0.547	0.798	0.787	0.748	0.413	0.495	0.514	0.425	0.453	0.438	0.394	0.411	0.456	0.688	0.472
LK-2	0.497	0.48	0.483	1.35	1.51	0.934	0.548	0.599	0.605	0.212	0.246	0.216	0.225	0.237	–	1.18	0.774
LOU-NH91	0.557	0.492	0.528	0.904	0.97	0.918	0.526	0.587	0.514	0.711	0.72	0.727	0.745	0.701	–	0.742	–
LU99A	0.262	0.258	0.219	0.631	0.734	0.571	0.399	0.396	0.355	0.275	0.313	0.328	0.346	0.293	0.299	0.727	0.43
NCI-H522	–	–	–	–	–	–	1.18	1.08	1.21	0.606	0.739	0.704	0.789	0.641	–	–	1.14
NCI-H596	0.399	0.378	0.335	0.825	0.857	0.924	–	–	–	0.748	0.688	0.803	0.487	0.693	0.399	0.922	–
NCI-H1299	0.796	0.784	0.603	1.07	1.07	1.06	–	–	–	–	–	–	–	–	0.77	1.05	–
NCI-H1563	0.674	0.627	0.732	0.874	0.844	0.793	–	–	–	0.796	0.653	0.69	0.754	0.633	0.634	0.89	–
NCI-H1623	–	–	–	0.9	0.825	0.739	–	–	–	0.44	0.402	0.423	0.389	0.477	–	0.795	–
NCI-H1648	–	–	–	–	–	–	0.305	0.252	0.196	0.268	–	0.256	0.237	0.254	–	–	–
NCI-H1703	0.253	0.247	0.275	0.398	0.318	0.513	–	–	–	–	–	–	–	–	–	–	–
NCI-H2342	–	–	–	0.975	1.19	1.07	0.473	0.509	0.577	0.544	0.655	0.613	0.631	0.602	–	0.88	0.555
SW 900	–	–	–	0.883	0.886	0.989	0.481	0.453	0.487	0.609	0.482	0.449	0.429	0.713	–	0.733	0.432
